Data reported in US5474988A, “5-phenylpyrrolo-1,4-benzoxazine and 5-phenylpyrrolo-1,4-benzothiazine compounds, process and intermediates for their production and pharmaceutical compositions containing them” (Kali-Chemie Pharma GmbH, priority 1993, dated 1995).

What was measured:
[1] = system: 5-lipoxygenase; assay: inhibition of 5-lipoxygenase activity in polymorphonuclear rat leucocytes (LTB4 formation); type: cell-based; conditions: 10^-5 mol/l; 22° C.
Summary of the method: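 Thioglycolate-elicited peritoneal PMNs from male Sprague-Dawley rats (0.5×10^6 cells) preincubated 15 min at 22 °C with 10 μM compound in HEPES-buffered HBSS, then stimulated with 5 μM calcimycin for 10 min. LTB4 quantified by reverse-phase HPLC at 270 nm; % inhibition versus solvent control.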

[2] = system: cutaneous histamine induced anaphylactoid reactions; assay: inhibition of the anaphylactoid cutaneous reaction induced by histamine; type: in vivo, Sprague-Dawley rats; conditions: Rattus norvegicus, po, 0.5 h; 2 × 10^-5 mole/kg p.o., one hour before histamine; assessed 30 minutes after provocation; read-out: Inhibitory action against cutaneous histamine induced anaphylactoid reactions in rats, % inhibition
Procedure: 1. Determination of the inhibition of the anaphylactoid cutaneous reaction induced by histamine.
The inhibition of the anaphylactoid cutaneous reaction induced by histamine was determined in Sprague-Dawley rats having body weights of 150-180 g.
In order to determine the histamine-induced anaphylactoid skin reaction, 50 μl of a physiological saline solution containing 0.8 mg/ml of histamine were injected into the animals intradermally on one flank. Immediately afterward, a solution of 26.4 mg/kg of a blue dye (Evan's Blue) was administered i.v. to the animals.
The test substances were dissolved in distilled water which contains 1% by volume of dimethylformamide and 1% by volume of Tween®20 (=polyoxyethylene(20) sorbitan monolaurate). One hour before the histamine injection, each animal received 2×10^-5 mol/kg of test substance, in each case administered orally in 0.5 ml of solution. A control group received only the solvent for comparison.
The histamine-induced anaphylactoid reactions which manifested themselves by edema formation, swelling and exudation of blue dye are assessed 30 minutes after provocation by the histamine injection. This is carried out by visual determination of the extent of the exudation of blue dye at the sites of edema formation. With the aid of comparison scales, the percentage inhibition of the anaphylactoid reactions produced by the test substances is determined in comparison with the reactions of the control animals not treated with test substance.
The results obtained with compounds of the formula I by the above test method are reproduced in the following table A. The example numbers given as identifiers for the compounds of formula I refer to the subsequent preparative examples.

[3] = system: male mice; conditions: mouse, in vivo, po, 1440 min
Procedure: 2. Determination of the minimum toxic dose.
Maximum doses of 300 mg/kg of the test substance were administered orally to male mice each weighing 20-25 g. The animals were carefully observed for symptoms of toxicity for 3 hours. All symptoms and deaths were additionally recorded over a period of 24 hours after administration. Associated symptoms were likewise observed and recorded. If death or severely toxic symptoms were observed, increasingly lower doses were administered to further mice. The lowest dose which caused death or severely toxic symptoms is indicated as the minimum toxic dose in the following Table B: […]

[4] = system: P.A.F.-induced aggregation of blood platelets; assay: anti-P.A.F. action in vitro (P.A.F.-induced platelet aggregation); type: cell-based; conditions: Oryctolagus cuniculus, 10^-5 mole/liter, read-out: Anti-P.A.F. activity in vitro, % inhibition of the P.A.F.-induced aggregation of blood platelets from rabbit blood
Summary of the method: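 Washed rabbit platelets (4×10^9/ml stock suspension, aspirin-lysine treated) in modified Tyrode buffer pH 7.4 with 1.3 mM CaCl2 and gelatine; test substance at 10^-5 mol/l final, 90 s preincubation before P.A.F. Aggregation followed 4-5 min by aggregometer; % inhibition of P.A.F.-induced aggregation increase calculated.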

## Cc1ccnc(N2CCN(CCC3Cn4c(-c5ccc(O)cc5)c(C)c5c(Cl)ccc(c54)O3)CC2)c1 (stereo not shown) [Example 19]
[1]
  In vitro inhibitory activity on LTB4 formation in rat PMNs stimulated by calcium ionophore A23187: 45%
[2]
  inhibition in vivo at 20 µmol/kg: 45%
[3]
  Minimum toxic dose: > 300 mg/kg
[4]
  inhibition at 10 µM: 71%
